Source: US20100028417A1, “USE OF SUBSTITUTED GLYCERIN DERIVATIVES FOR PRODUCING A PHARMACEUTICAL PREPARATION” (priority 2006, published 2010)

Experiments:
cytochrome P450 [1] = test: in vitro inhibition of cytochrome P450 activity; format: biochemical
cytochrome P450 [2] = test: in vivo activity (inhibition of cytochrome P450 activity)

| Structure (SMILES) | inhibition of cytochrome P450 activity (cytochrome P450 [1]) | in vivo activity compared with 10-undecinyl acid (cytochrome P450 [2]) |
| --- | --- | --- |
| C#CCCCCCCCCC(C)(C)C(=O)O [2,2-dimethyl-11-dodecinyl acid] | comparably high inhibition | far superior in vivo |
| C#CCCCCCCCCC(=O)O [10-undecinyl acid] | comparably high inhibition | – |
